Experimental data reported in US11219625B2, “Inhibitors of N-linked glycosylation and methods using same” (YALE UNIVERSITY, priority 2015, dated 2022).

Legend:
Format in all cases: cell-based
PC9 cells = experiment: MTT proliferation assay, PC9; conditions: PC9, 10 μM NGI-1, after 3 days, p<0.001
Protocol: (§1) FIGS. 4A-4H illustrate the finding that NGI-1 blocks RTK driven proliferation. FIG. 4A illustrates western blot analysis of EGFR phosphorylation (Y1173) and gel mobility in PC9 (EGFR-mutant) and A549 (k-ras mutant) NSCLC cells after 10 μM NGI-1 treatment for 24 h. […] Actin expression was used as a control for protein loading. FIG. 4B illustrates MTT assays results of PC9 following treatment with 10 μM NGI-1 or 1 μM tunicamycin for a total of 5 d. Relative proliferation id reported in fold increase from day 0. FIG. 4C illustrates MTT assays results of A549 following treatment with 10 μM NGI-1 or 1 μM tunicamycin for a total of 5 d. Relative proliferation id reported in fold increase from day 0. FIG. 4D illustrates protein phosphorylation profiles of PC9 cells analyzed by phospho-protein array to assess the response of PC9 to 10 μM NGI-1 for 24 h. FIG. 4E illustrates protein phosphorylation profiles of A549 cells analyzed by phospho-protein array to assess the response of A549 to 10 μM NGI-1 for 24 h. […]
(§2) Growth rates were determined by CellTiter 96 NonRadioactive Cell Proliferation Assay (Promega; Madison, Wis. USA) according to the manufacturer's directions. […] Cell numbers were estimated after 0, 3, and 5 days by adding MTT [(3-(4,5-Dimethylthiazol-2-yl)-2,5-diphenyltetrazolium bromide] reagent to the wells 4 hours before taking the spectrophotometric reading (absorbance at 570 nm).

H3255 cells = experiment: Cell cycle distribution by flow cytometry, H3255; conditions: H3255, NGI-1 24 h, p<0.05
Protocol: FIGS. 7A-7D illustrate EGFR kinase domain mutant cell lines growth inhibition and cell cycle arrest response to NGI-1. FIG. 7A illustrates MTT assays to determine the effects of NGI-1 on growth of H3255 cells. FIG. 7B illustrates MIT assays to determine the effects of NGI-1 on growth of HCC827 cells. EGFR kinase domain mutant cell lines H3255 and HCC827 cells were untreated or treated with 10 μM NGI-1 for 5 d. […] FIG. 7C illustrates cell cycle distribution of H3255 after 24 h NGI-1 treatment for 24 h determined by flow cytometry. FIG. 7D illustrates cell cycle distribution of HCC827 after 24 h NGI-1 treatment for 24 h determined by flow cytometry.
For the assessment of cell cycle distribution, 1×10^6 cells were collected, washed once with ice-cold PBS and fixed in ice-cold 70% ethanol overnight at −20° C. Thereafter, cells were washed twice with PBS and incubated for 30 min at room temperature in 200 μL of Guava Cell Cycle Reagent (Guava Technologies). Cytofluorometric acquisitions were performed on a LSRII cytometer (BD Biosciences). First-line analysis was performed with Flow Jo software, upon gating on the events characterized by normal forward and side scatter parameters and discrimination of doublets in a FSC-A vs. FSC-H bivariate plot. Approximately 30,000 cells were analyzed per experiment, and the mean value was obtained from 3 independent assays.

H2444 cells = experiment: MTT proliferation assay, H2444; conditions: H2444, 10 μM NGI-1, 5 d
Protocol: as §1, §2

Cc1cnc(NC(=O)c2cc(S(=O)(=O)N(C)C)ccc2N2CCCC2)s1 [NGI-1, 5-(N,N-Dimethylsulfamoyl)-N-(5-methylthiazol-2-yl)-2-(pyrrolidin-1-yl)benzamide]
reduction of cell proliferation, MTT (PC9 cells): more than 90%
cell cycle distribution (H3255 cells): undergo G1 arrest
effect on proliferation, MTT (H2444 cells): insensitive to NGI-1
